The test system of data set [1] is human cord blood CD34+ cells. As to the kind of experiment: Bone marrow stem cell (hematopoietic trilineage) colony formation assay. In kind it is cell-based. How it is done: Human hematopoietic stem cell trilineage colony formation assays were performed as previously described by us. Briefly, human cord blood CD34+ cells (catalog #: 70008.5) were purchased from StemCell Technology Inc. and seeded at 1 × 10^4 cells per 35 mm dish. Cells were cultured in MethoCult™ Express (StemCell Technologies, Inc. (Vancouver, BC, Canada)) semisolid media, per the manufacturer’s instructions, in the presence of compound or vehicle (for controls). Compounds were added at final concentrations matching those used in the initial growth assay screens. At eight days, colonies (i.e., groups of ≥10 cells) were counted. At fourteen days, individual colonies of erythroid burst-forming units (BFU-E), colony-forming unit granulocyte–macrophage (CFU-GM), and colony-forming unit granulocyte, erythrocyte, monocyte, and megakaryocyte (CFU-GEMM) were identified based on the manufacturers’ morphologic characterization criteria. Assays were run in replicates of N = 2, and some were run in replicates of N = 4, as denoted. The mean number of colonies was then determined and expressed as the percentage of controls. The effect of each compound on inhibiting the growth of cancer cells relative to its toxic effects on normal bone marrow was evaluated. This was carried out by comparing colonies at 8 days for each cancer cell line to that of bone marrow. This information was used to calculate the efficacy ratio, as follows: efficacy ratio = (percent of remaining cancer cell colonies)/(percent of remaining bone marrow colonies). This was performed for all compounds at 40 µM and for selected compounds at 5.7 µM, as denoted. For compounds nominated for second-level screens, bone marrow colony formation assays were also repeated. Compounds were added at final concentrations matching those used in the initial screens.
In parallel with measuring growth inhibition of cancer cell growth, we measured the effect on human hematopoietic stem cells. Hematopoietic stem cells reside in the bone marrow and are the source of mature cells present in blood. Bone marrow is one of the most sensitive organs in the body to drug toxicity, and this is especially so for anticancer drugs, where bone marrow toxicity can approach 100% [78, 79, 80]. Bone marrow toxicity was measured by performing hematopoietic colony formation assays on human CD34+ stem cells. The stem cell nature of this assay permitted the assessment of trilineage colony formation: granulocytic (white blood cells), erythrocytic (red blood cells), and megakaryocytic (platelets), measured by the formation of CFU-GM, BFU-E, and CFU-GEMM colonies, respectively. Two measurements were taken. First, total colonies at eight days were measured, thereby matching the eight-day timeframe of cancer cell colony formation assays. Second, at fourteen days, individual colonies had differentiated, permitting quantification of each lineage.

In another data set the test system is cleaved caspase 3. As to the kind of experiment: Western blot for cleaved caspase 3, SK-MEL-5. In kind it is cell-based, human. To be noted: up to 20 µM, three days. How it is done: (§1) After treatment of M14 and SK-MEL-5 cells with different concentrations of Dxr2-017 or vehicle for 3 or 8 days, as denoted, cell images were captured at 20X in a transmitted light channel using the EVOS™ M5000 Imaging System (Invitrogen (Waltham, MA, USA)). Western blots were performed as previously described by us. Briefly, cells were collected and lysed using RIPA lysis buffer (25 mM Tris-HCl pH 7.6, 150 mM NaCl, 1% NP-40, 1% sodium deoxycholate, and 0.1% SDS; Thermo Scientific^TM (Waltham, MA, USA), #89900), supplemented with protease and phosphatase inhibitor cocktail (Thermo Scientific^TM, #78442) and 1 mM of PMSF. Resultant Western blots were probed using antibodies against cleaved caspase 3 (Cell Signaling Technology (Danvers, MA, USA), #9664), pan-cadherin (Cell Signaling Technology, #4068), and β-actin (Santa Cruz (Santa Cruz, CA, USA), #sc-47778).
We then assessed whether Dxr2-017 induced apoptosis. We treated M14 and SK-MEL-5 cells with Dxr2-017 for three days at concentrations of up 10 and 20 µM, respectively, and measured cleaved caspase 3 using Western blot. […] In this assay, cells were grown in six-well plates and washed prior to lysis, and thus only adherent cells remained. […] Adherent cells are spread out and fusiform shaped, while detached/floating cells are round, as previously reported by us. […]

The subject of another data set is pan-cadherin. As to the kind of experiment: Western blot for pan-cadherin, SK-MEL-5. In kind it is cell-based, human. How it is done: as §1
These findings led us to compare cleaved caspase 3 between adherent cells and floating cells. Cleaved caspase 3 is an indicator of programmed cell death, and its triggering by loss of cell attachment is an established means of detecting anoikis. Adherent cells were prepared as above. […]

Values joined by “and” are separate entries in the source; they are usually repeats but may differ in a detail not shown here. Equal entries are not always repeated. “Also recorded” adds a separate entry of the source.

Take `c1ccc2sc(-c3ccc(CNc4ccc5nnnn5n4)o3)nc2c1` [Dxr2-017]: the “inhibition of normal bone marrow eight-day colony formation” value in data set [1] (40 µM, 8 days) is 30.2 ± 0.7% and 30%. Besides, in data set [1] (40 µM, 14 days), the “decrease of BFU-E compared to the control” value was determined as 97.1 ± 4.1%, the “decrease of CFU-GM compared to the control” value is 49.8 ± 0.0%, the “increase of CFU-GEMM compared to the control” value is recorded as 16.1 ± 12.0% and the “inhibition of normal bone marrow fourteen-day total colony formation” value is reported as 42.6 ± 5.8%. For the same molecule, the “Mean Number of Colonies, % of Control, 14 days” value in data set [1] (normal bone marrow, compound at 40 µM, 14 days, N = 2) is given as 57 % of Control. In addition, the “Mean Number of Colonies, % of Control, 8 days” value in data set [1] (normal bone marrow, compound at 40 µM, total colonies at 8 days, N = 2) is reported as 70 % of Control. For the same molecule, in the data set on cleaved caspase 3, the “cleaved caspase 3, adherent and floating cells combined” value is on record as “clear formation was observed”; the “cleaved caspase 3, adherent cells only” value is reported as “did not see any induction of cleaved caspase 3; also recorded: no formation of cleaved caspase 3”. The cadherin expression entry in the data set with pan-cadherin is listed as “decreased cadherin expression in a concentration-dependent manner”.

Values taken from PMC11429909, “Protein Structure Inspired Discovery of a Novel Inducer of Anoikis in Human Melanoma” (Cancers, 2024).
